{"source": "patent US8759386B2", "about": "“Pyrazole compounds as CRTH2 antagonists” (Boehringer Ingelheim International GmbH, priority 2011, dated 2014)"}
{"biological_target": "human CRTH2 receptor (Homo sapiens (Human), UniProt Q9Y5Y4)", "sequence (Q9Y5Y4 whole entry)": "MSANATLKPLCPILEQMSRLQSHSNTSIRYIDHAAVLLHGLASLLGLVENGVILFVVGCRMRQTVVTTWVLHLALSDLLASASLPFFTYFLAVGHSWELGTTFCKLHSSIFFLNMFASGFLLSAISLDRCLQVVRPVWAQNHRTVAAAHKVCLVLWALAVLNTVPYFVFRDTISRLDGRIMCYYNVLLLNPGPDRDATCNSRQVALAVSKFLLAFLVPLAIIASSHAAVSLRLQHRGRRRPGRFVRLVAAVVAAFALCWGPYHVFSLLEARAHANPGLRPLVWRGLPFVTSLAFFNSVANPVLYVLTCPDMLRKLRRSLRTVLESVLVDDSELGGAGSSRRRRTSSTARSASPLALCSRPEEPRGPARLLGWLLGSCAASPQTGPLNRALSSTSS", "experiment": "CRTH2 receptor radioligand binding assay (SPA, [3H]-PGD2, CHO-K1-hCRTH2 cell membranes)", "settings": "Table 1, compounds of formula Ia″; displacement of [3H]-PGD2 from CHO-K1-hCRTH2 membranes", "description": "(§1) Preparation of Human CRTH2 Receptor Membranes and Radioligand Binding Assay\n(§2) The binding of CRTH2 antagonists is determined using membranes prepared from Chinese hamster ovary cells (CHO-K1 cells) transfected with the human CRTH2 receptor (CHO-K1-hCRTH2 cells, Perkin Elmer, Cat No ES-561-C). To produce cell membranes the CHO-K1-hCRTH2 cells are cultured in suspension in CHO SFMII medium supplemented with 400 μg/mL G418. The cells are harvested by centrifugation at 300 g for 10 min at room temperature. The cell pellet is resuspended in Phosphate Buffer Saline (PBS) including a protease inhibitor mix (Complete, Roche) and adjusted to a concentration of 10E7 cells/mL. The CHO-K1-hCRTH2 cells are disrupted by nitrogen […] to obtain the membrane preparation. Cell debris is removed by centrifugation (500 g at 4° C., 30 min) and the supernatant is transferred into fresh tubes followed by a second centrifugation at 40000 g for 1 hour at 4° C. to sediment the membranes. The membranes are suspended in SPA incubation buffer (50 mM Tris HCl, 10 mM MgCl2, 150 mM NaCl, 1 mM EDTA, pH 7.4) without bovine serum albumin, homogenized by passing through a single use needle (Terumo, 23G×1″), and stored in aliquots at −80° C.\n(§3) The CRTH2 receptor binding assay is performed in a scintillation proximity assay (SPA) format with the radioligand [^3H]-PGD2 (Perkin Elmer, NET616000MC). CHO-K1-hCRTH2 cell membranes are again homogenized by passing through a single use needle (Terumo, 23G×1″) and diluted in SPA incubation buffer in suitable concentrations (0.5-10 μg protein/well). The SPA assay is set up in 96 well microtiter plates (Perkin Elmer, Cat No. 6005040) in SPA incubation buffer with a final volume of 200 μL per well and final concentration of 50 mM Tris-HCl, 10 mM MgCl2, 150 mM NaCl, 1 mM EDTA pH 7.4, 0.1% bovine serum albumin). The SPA assay mixture contains 60 μl of the membrane suspension, 80 μL of Wheat Germ Agglutinin coated PVT beads (GE Healthcare, RPNQ-0001, 0.3 mg/well), 40 μL of [^3H]-PGD2 diluted in SPA buffer to a final concentration of 1 nM (50 000 dpm) and 20 μL of the test compound (dissolved in dimethylsulfoxide). The SPA assay mixture is incubated for 3 h at room temperature. Bound radioactivity is determined with a scintillation counter (Micro Beta Trilux, Wallac). The binding of [^3H]-PGD2 to CHO-K1-hCRTH2 cell membranes is determined in the absence (total binding, Bo) and presence (non-specific binding, NSB) of unlabelled PGD2 (1 μM, Cayman Chemical, Cat No 12010) or a reference CRTH2 antagonist (10 μM CAY10471, Cayman Chemical, Cat No 10006735). Determination of the affinity of a test compound is calculated by subtraction of the non-specific binding (NSB) from the total binding (Bo) or the binding in the presence of the test compound (B) at a given compound concentration. The NSB value is set to 100% inhibition. The Bo-NSB value is set to 0% inhibition.\n(§4) % inhibition values were obtained at a defined compound concentration, e.g. at 1 μM, % inhibition of the test compound was calculated by the formula 100−((B−NSB)*100/(Bo−NSB)). % inhibition values above 100% are founded by assay variance.", "units": {"Ki": "pM"}}
{"compound": "Cc1nn(Cc2ccc(NC(=O)c3cc4ccccc4[nH]3)cc2Cl)c(C)c1CC(=O)O", "note": "[Compound 2]", "Ki": 500}
{"compound": "Cc1nn(Cc2ccc(NC(=O)c3cc4ccccc4n3Cc3ccccc3)cc2F)c(C)c1CC(=O)O", "note": "[Compound 3]", "Ki": 200}
{"compound": "Cc1nn(Cc2ccc(NC(=O)c3cc4ccccc4o3)cc2Cl)c(C)c1CC(=O)O", "note": "[Compound 5]", "Ki": 800}
{"compound": "COc1ccc2oc(C(=O)Nc3ccc(Cn4nc(C)c(CC(=O)O)c4C)cc3)cc2c1", "note": "[Compound 6]", "Ki": 600}
{"compound": "Cc1nn(Cc2ccc(NC(=O)c3oc4c(F)cccc4c3C)cc2)c(C)c1CC(=O)O", "note": "[Compound 7]", "Ki": 1300}
{"compound": "Cc1nn(Cc2ccc(NC(=O)c3cc4cc(Cl)ccc4o3)cc2)c(C)c1CC(=O)O", "note": "[Compound 8]", "Ki": 300}
{"compound": "COc1cccc2cc(C(=O)Nc3ccc(Cn4nc(C)c(CC(=O)O)c4C)cc3)oc12", "note": "[Compound 9]", "Ki": 1200}
{"compound": "Cc1nn(Cc2ccc(NC(=O)c3cc4ccccc4[nH]3)cc2)c(C)c1CC(=O)O", "note": "[Compound 10]", "Ki": 200}
{"compound": "Cc1nn(Cc2ccc(NC(=O)c3cc4ccc(F)cc4[nH]3)cc2)c(C)c1CC(=O)O", "note": "[Compound 11]", "Ki": 200}
{"compound": "Cc1nn(Cc2ccc(NC(=O)c3cc4cc(F)ccc4[nH]3)cc2)c(C)c1CC(=O)O", "note": "[Compound 12]", "Ki": 200}
{"compound": "Cc1nn(Cc2ccc(NC(=O)c3c(C)c4ccccc4n3C)cc2)c(C)c1CC(=O)O", "note": "[Compound 13]", "Ki": 63900}
{"compound": "COc1ccc2[nH]c(C(=O)Nc3ccc(Cn4nc(C)c(CC(=O)O)c4C)cc3)c(C)c2c1", "note": "[Compound 14]", "Ki": 100}
{"compound": "Cc1nn(Cc2ccc(NC(=O)c3cc4ccccc4s3)cc2)c(C)c1CC(=O)O", "note": "[Compound 15]", "Ki": 300}
{"compound": "Cc1nn(Cc2ccc(NC(=O)c3cc4ccccc4n3C)cc2)c(C)c1CC(=O)O", "note": "[Compound 16]", "Ki": 800}
{"compound": "CCn1c(C(=O)Nc2ccc(Cn3nc(C)c(CC(=O)O)c3C)cc2)cc2ccccc21", "note": "[Compound 17]", "Ki": 400}
{"compound": "Cc1nn(Cc2ccc(NC(=O)c3cc4ccccc4n3Cc3ccccc3)cc2)c(C)c1CC(=O)O", "note": "[Compound 18]", "Ki": "< 100"}
{"compound": "CCc1nn(Cc2ccc(NC(=O)c3cc4cc(Cl)ccc4o3)cc2)c(CC)c1CC(=O)O", "note": "[Compound 19]", "Ki": 200}
{"compound": "CCc1nn(Cc2ccc(NC(=O)c3cc4ccccc4[nH]3)cc2)c(CC)c1CC(=O)O", "note": "[Compound 20]", "Ki": 300}
{"compound": "CCc1nn(Cc2ccc(NC(=O)c3cc4ccccc4n3C)cc2)c(CC)c1CC(=O)O", "note": "[Compound 21]", "Ki": 300}
{"compound": "CCc1nn(Cc2ccc(NC(=O)c3cc4ccccc4n3CC)cc2)c(CC)c1CC(=O)O", "note": "[Compound 22]", "Ki": 200}
{"compound": "CCc1nn(Cc2ccc(NC(=O)c3cc4cc(F)ccc4[nH]3)cc2)c(CC)c1CC(=O)O", "note": "[Compound 23]", "Ki": 300}
{"compound": "CCc1nn(Cc2ccc(NC(=O)c3c(C)c4ccccc4n3C)cc2)c(CC)c1CC(=O)O", "note": "[Compound 24]", "Ki": 9900}
{"compound": "CCc1nn(Cc2ccc(NC(=O)c3cc4ccc(F)cc4[nH]3)cc2)c(CC)c1CC(=O)O", "note": "[Compound 25]", "Ki": 200}
{"compound": "CCCn1c(C(=O)Nc2ccc(Cn3nc(C)c(CC(=O)O)c3C)cc2)cc2ccc(F)cc21", "note": "[Compound 28]", "Ki": 100}
{"compound": "CCn1c(C(=O)Nc2ccc(Cn3nc(C)c(CC(=O)O)c3C)cc2)cc2ccc(F)cc21", "note": "[Compound 29]", "Ki": 100}
{"compound": "Cc1nn(Cc2ccc(NC(=O)c3cc4ccccc4n3C)cc2F)c(C)c1CC(=O)O", "note": "[Compound 30]", "Ki": 1000}
{"compound": "CCn1c(C(=O)Nc2ccc(Cn3nc(C)c(CC(=O)O)c3C)c(F)c2)cc2ccccc21", "note": "[Compound 31]", "Ki": 200}
{"compound": "Cc1nn(Cc2ccc(NC(=O)c3oc4c(Cl)cccc4c3C)cc2)c(C)c1CC(=O)O", "note": "[Compound 33, (1-(4-[(7-Chloro-3-methylbenzofuran-2-carbonyl)amino]benzyl)-3,5-dimethyl-1H-pyrazol-4-yl)acetic acid]", "Ki": 2200}
{"compound": "CCc1c(C(=O)Nc2ccc(Cn3nc(C)c(CC(=O)O)c3C)cc2)oc2c(F)cccc12", "note": "[Compound 34]", "Ki": 300}
{"compound": "CCc1c(C(=O)Nc2ccc(Cn3nc(C)c(CC(=O)O)c3C)cc2)oc2c(F)cc(F)cc12", "note": "[Compound 35]", "Ki": 300}
{"compound": "Cc1nn(Cc2ccc(NC(=O)c3cc4ccc(Cl)cc4o3)cc2)c(C)c1CC(=O)O", "note": "[Compound 36]", "Ki": 200}
{"compound": "Cc1nn(Cc2ccc(NC(=O)c3oc4c(Cl)cccc4c3C)cc2F)c(C)c1CC(=O)O", "note": "[Compound 37]", "Ki": 2200}
{"compound": "Cc1nn(Cc2ccc(NC(=O)c3cc4ccc(Cl)cc4o3)cc2F)c(C)c1CC(=O)O", "note": "[Compound 39]", "Ki": 400}
{"compound": "CCn1c(C(=O)Nc2ccc(Cn3nc(C)c(CC(=O)O)c3C)c(F)c2)cc2c(F)cccc21", "note": "[Compound 40]", "Ki": 400}
{"compound": "CCn1c(C(=O)Nc2ccc(Cn3nc(C)c(CC(=O)O)c3C)c(F)c2)cc2ccc(F)cc21", "note": "[Compound 41]", "Ki": 100}
{"compound": "CCCn1c(C(=O)Nc2ccc(Cn3nc(C)c(CC(=O)O)c3C)c(F)c2)cc2ccc(F)cc21", "note": "[Compound 42]", "Ki": 100}
{"compound": "COCc1c(C(=O)Nc2ccc(Cn3nc(C)c(CC(=O)O)c3C)c(F)c2)oc2ccccc12", "note": "[Compound 43]", "Ki": 2300}
{"compound": "Cc1nn(Cc2ccc(NC(=O)c3oc4ccc(Cl)cc4c3C)cc2F)c(C)c1CC(=O)O", "note": "[Compound 44]", "Ki": 300}
{"compound": "Cc1nn(Cc2ccc(NC(=O)c3sc4ccc(F)cc4c3C)cc2F)c(C)c1CC(=O)O", "note": "[Compound 46]", "Ki": 4500}
{"compound": "CCc1c(C(=O)Nc2ccc(Cn3nc(C)c(CC(=O)O)c3C)c(F)c2)oc2ccc(F)cc12", "note": "[Compound 47]", "Ki": 900}
{"compound": "COc1ccc2oc(C(=O)Nc3ccc(Cn4nc(C)c(CC(=O)O)c4C)c(F)c3)c(C)c2c1", "note": "[Compound 49]", "Ki": 100}
{"compound": "Cc1nn(Cc2ccc(NC(=O)c3oc4c(F)cccc4c3C)cc2F)c(C)c1CC(=O)O", "note": "[Compound 50]", "Ki": 400}
{"compound": "Cc1nn(Cc2ccc(NC(=O)c3cc4cc(F)ccc4n3C)cc2F)c(C)c1CC(=O)O", "note": "[Compound 51]", "Ki": 400}
{"compound": "CCCc1c(C(=O)Nc2ccc(Cn3nc(C)c(CC(=O)O)c3C)c(F)c2)oc2ccc(F)cc12", "note": "[Compound 52]", "Ki": 700}
{"compound": "CCCCn1c(C(=O)Nc2ccc(Cn3nc(C)c(CC(=O)O)c3C)c(F)c2)cc2ccccc21", "note": "[Compound 53]", "Ki": 200}
{"compound": "CCCn1c(C(=O)Nc2ccc(Cn3nc(C)c(CC(=O)O)c3C)c(F)c2)cc2cc(F)ccc21", "note": "[Compound 54]", "Ki": 200}
{"compound": "CCCCn1c(C(=O)Nc2ccc(Cn3nc(C)c(CC(=O)O)c3C)c(F)c2)cc2cc(F)ccc21", "note": "[Compound 55]", "Ki": 100}
{"compound": "CCCn1c(C(=O)Nc2ccc(Cn3nc(C)c(CC(=O)O)c3C)c(F)c2)cc2ccccc21", "note": "[Compound 56]", "Ki": 200}
{"biological_target": "human CRTH2 receptor (Homo sapiens (Human), UniProt Q9Y5Y4)", "experiment": "CRTH2 receptor radioligand binding assay (SPA, [3H]-PGD2, CHO-K1-hCRTH2 cell membranes)", "settings": "Table 2, compounds of formula Ib″; displacement of [3H]-PGD2 from CHO-K1-hCRTH2 membranes", "description": "as §1, §2, §3, §4", "units": {"Ki": "pM"}}
{"compound": "Cc1nn(Cc2ccc(NC(=O)c3coc4ccccc34)cc2)c(C)c1CC(=O)O", "note": "[Compound 57]", "Ki": 8800}
{"compound": "Cc1nn(Cc2ccc(NC(=O)c3c[nH]c4ccccc34)cc2)c(C)c1CC(=O)O", "note": "[Compound 58]", "Ki": 37200}
{"compound": "Cc1nn(Cc2ccc(NC(=O)c3csc4ccccc34)cc2)c(C)c1CC(=O)O", "note": "[Compound 59]", "Ki": 3800}
